According to patent publication US12636285B2 (ViiV Healthcare Company, priority 2019, dated 2026):
Where “and” joins values, the source holds several entries; their conditions need not be identical. Equal entries are not always repeated. Where two headings read alike, the source gives them in different places.

How the values were obtained:
[1] = Phase 3 clinical trials of oral rilpivirine (rash); format: in vivo, human
Source text: According to another aspect of the main embodiment, precautions are taken prior to and during treatment with the Combination. Severe skin and hypersensitivity reactions have been reported during postmarketing experience with oral rilpivirine-containing regimens including cases of Drug Reaction with Eosinophilia and Systemic Symptoms (DRESS). While some skin reactions were accompanied by constitutional symptoms such as fever, other skin reactions were associated with organ dysfunctions, including elevations in hepatic serum biochemistries.

[2] = system: HIV-1 with NNRTI substitutions; assay: Cross-resistance of rilpivirine, NNRTI substitutions; format: cell-based
[3] = Binding to human plasma proteins; format: in vitro ADME; conditions: read-out: % Bound to human plasma proteins (converted)
[4] = cited from earlier work
[5] = Mass balance studies, single-dose oral [14C] drug; format: in vivo, human; conditions: single-dose oral [14C] drug
group O primary isolates = assay: Antiviral activity against group O primary isolates; format: cell-based, HIV-1; conditions: Human immunodeficiency virus 1, read-out: EC50 values
[6] = Lactating rats, exposure of pups through milk; format: in vivo, rat; conditions: administered to lactating rats
Source text: The Centers for Disease Control and Prevention recommends that HIV-1-infected mothers in the United States not breastfeed their infants to avoid risking postnatal transmission of HIV-1 infection. It is not known if the components of the Combination are present in human breast milk, affect human milk production, or have effects on the breastfed infant. […] Animal Data: Cabotegravir: […] Rilpivirine: […]

[7] = Fertility studies in rats; format: in vivo, rat; conditions: up to 400 mg/kg/day, dose with maternal toxicity
[8] = Pharmacokinetics in specific populations (renal, hepatic impairment, UGT1A1 genotype); format: in vivo, human; conditions: for exposure higher than matched controls: n=8
Source text: No dosage adjustment is necessary for patients with mild to severe renal impairment (not on dialysis).
No dosage adjustment is necessary for patients with mild to moderate hepatic impairment (Child-Pugh Score A or B).
No dose adjustment is required in subjects with UGT1A1 polymorphisms.

HIV-1 = assay: Antiviral activity in combination with other antivirals, cell culture; format: cell-based
[9] = QT crossover trial of oral rilpivirine in healthy adults; format: in vivo, human
Source text: The maximum mean time-matched (95% upper confidence bound) differences in QTcF interval from placebo after baseline correction was 2.0 (5.0) msec (i.e., below the threshold of clinical concern).

[10] = Pharmacokinetic properties of the components of the Combination (Table 6); design: species or system human; conditions: in vivo
HIV-1111B = assay: Antiviral activity in an acutely infected T-cell line; format: cell-based, HIV-1; conditions: Human immunodeficiency virus 1, read-out: median EC50
[11] = Genotoxicity: bacterial reverse mutation assay, mouse lymphoma assay, in vivo rodent micronucleus assay
[12] = system: human cellular DNA polymerases α, β, and γ; assay: Inhibition of human cellular DNA polymerases; format: biochemical
[13] = Multiple-dose pharmacokinetics after monthly IM injections, population PK post-hoc estimates FLAIR and ATLAS; format: in vivo, human; conditions: 600-mg monthly IM injection
[14] = system: HIV-1 group M (subtypes A, B, C, D, F, G, and H) primary isolates; assay: Antiviral activity against group M primary isolates; format: cell-based; conditions: Human immunodeficiency virus 1, read-out: EC50 values
[15] = in vivo
Source text: The observed hepatocellular findings in mice may be rodent specific.

For `Cc1cc(/C=C/C#N)cc(C)c1Nc1ccnc(Nc2ccc(C#N)cc2)n1` [Rilpivirine, 4-[[4-[[4-[(E)-2-cyanoethenyl]-2,6-dimethylphenyl]amino]-2-pyrimidinyl]amino]benzonitrile], the “Grade 4 rash” value [1] was “no Grade 4 rash was reported”, the “treatment-related rashes with at least Grade 2 severity, subjects” value [1] was 3% and the “susceptibility with K103N substitution by itself” value [2] was “did not show reduced susceptibility”. The fraction unbound [3] was 0.003, the “prevalence of birth defects in live births” value ([4]; first trimester exposure to rilpivirine-containing regimens) was 0.9% and the “prevalence of birth defects in live births” value ([4]; second/third trimester exposure to rilpivirine-containing regimens) was 1.24%. For the same compound, the “% of dose excreted as total 14C in feces” value [5] was 85%, the “% of dose excreted as total 14C in urine” value [5] was 6% and the “% of dose excreted as unchanged drug in feces” value [5] was “(26) %”. For the same compound, the “% of dose excreted as unchanged drug in urine” value [5] was “(<1) %”, the EC50 (group O primary isolates) was 2.88 nM to 8.45 nM and 0.00106 µg/mL to 0.0031 µg/mL and the presence in milk [6] was “present in milk”. The “effects on mating or fertility” value [7] was “no effects on mating or fertility”, the “exposure higher than matched controls” value ([8]; mild hepatic impairment (Child-Pugh Score A)) was 47% and the “exposure higher than matched controls” value ([8]; moderate hepatic impairment (Child-Pugh Score B)) was 5%. For the same compound, the “effect of mild renal impairment on exposure” value ([8]; oral rilpivirine, population pharmacokinetic analyses) was “no clinically relevant effect”, the “antiviral activity combined with listed NNRTIs, NRTIs, protease inhibitors, enfuvirtide, maraviroc, or raltegravir” value (HIV-1) was “not antagonistic” and the “maximum mean time-matched (95% upper confidence bound) difference in QTcF interval from placebo after baseline correction” value ([9]; oral 25 mg once daily, steady state) was 2.0 (5.0) msec. For the same compound, the “maximum mean time-matched (95% upper confidence bound) difference in QTcF interval from placebo after baseline correction” value ([9]; oral 75 mg once daily) was 10.7 (15.3) msec, the “maximum mean time-matched (95% upper confidence bound) difference in QTcF interval from placebo after baseline correction” value ([9]; oral 300 mg once daily) was 23.3 (28.4) msec and the Tmax ([10]; human, im, intramuscular injection, read-out: Tmax, median (converted)) was 3 to 4 days. For the same compound, the half-life ([10]; human, im, intramuscular injection, read-out: t1/2 (absorption rate limited), mean) was 91 to 196 days, the “Major route of elimination” value [10] was “Metabolism” and the Metabolic pathways [10] was “CYP3A”. The EC50 (HIV-1111B) was 0.73 nM and 0.00027 µg/mL, the genotoxicity [11] was “not genotoxic” and the “inhibition of human cellular DNA polymerases α, β, and γ” value [12] was “does not inhibit”. The “Ctrough, geometric mean” value [13] was 82.2 ng/mL, the AUC ([13]; human, in vivo, read-out: AUCtau, geometric mean) was 65600 ng·h/mL and the Cmax ([13]; human, in vivo, read-out: Cmax, geometric mean) was 116 ng/mL. The EC50 [14] was 0.07 nM to 1.01 nM and 3e-05 µg/mL to 0.00037 µg/mL, the carcinogenicity ([15]; mouse) was “positive for hepatocellular neoplasms” and the carcinogenicity ([15]; rat) was “not carcinogenic”.
